Tests used:
[1] = test system: corn; test: Test A postemergence; format: in vivo, Zea mays; settings: Postemergence
Method in brief: (§1)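 Injury readout: eye-scored versus untreated controls, 0 to 100. Exposure period: ~10 days, greenhouse. Application: soil-directed spray over sown seed (pre) or spray on seedlings 2–10 cm tall with one or two leaves (post), compound carried in non-phytotoxic solvent including surfactant.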

[2] = test system: morningglory; test: Test A preemergence; format: in vivo, Ipomoea spp.
Method in brief: as §1

[3] = test system: crabgrass, large; test: Test A postemergence; format: in vivo, Digitaria sanguinalis; settings: Postemergence
Method in brief: as §1

[4] = test system: foxtail, giant; test: Test A preemergence; format: in vivo, Setaria faberii
Method in brief: as §1

[5] = test system: morningglory; test: Test A postemergence; format: in vivo, Ipomoea spp.; settings: Postemergence
Method in brief: as §1

[6] = test system: velvetleaf; test: Test A postemergence; format: in vivo, Abutilon theophrasti; settings: Postemergence
Method in brief: as §1

[7] = test system: corn; test: Test A preemergence; format: in vivo, Zea mays
Method in brief: as §1

[8] = test system: barnyardgrass; test: Test A postemergence; format: in vivo, Echinochloa crus-galli; settings: Postemergence
Method in brief: as §1

[9] = test system: rice; test: Test C flooded paddy test; format: in vivo, Oryza sativa; settings: Flood
Excerpt: (§2) At time of treatment, test pots were flooded to 3 cm above the soil surface, treated by application of test compounds directly to the paddy water, and then maintained at that water depth for the duration of the test. Treated plants and controls were maintained in a greenhouse for 13 to 15 days, after which time all species were compared to controls and visually evaluated. […] A dash (-) response means no test result.

[10] = test system: wheat; test: Test A postemergence; format: in vivo, Triticum aestivum; settings: Postemergence
Method in brief: as §1

[11] = test system: velvetleaf; test: Test A preemergence; format: in vivo, Abutilon theophrasti
Method in brief: as §1

[12] = test system: barnyardgrass; test: Test A preemergence; format: in vivo, Echinochloa crus-galli
Method in brief: as §1

[13] = test system: wheat; test: Test A preemergence; format: in vivo, Triticum aestivum
Method in brief: as §1

[14] = test system: sedge, umbrella; test: Test C flooded paddy test; format: in vivo, Cyperus difformis; settings: Flood
Excerpt: as §2

[15] = test system: foxtail, giant; test: Test A postemergence; format: in vivo, Setaria faberii; settings: Postemergence
Method in brief: as §1

[16] = test system: crabgrass, large; test: Test A preemergence; format: in vivo, Digitaria sanguinalis
Method in brief: as §1

[17] = test system: pigweed; test: Test A postemergence; format: in vivo, Amaranthus retroflexus; settings: Postemergence
Method in brief: as §1

[18] = test system: barnyardgrass; test: Test C flooded paddy test; format: in vivo, Echinochloa crus-galli; settings: Flood
Excerpt: as §2

[19] = test system: pigweed; test: Test A preemergence; format: in vivo, Amaranthus retroflexus
Method in brief: as §1

[20] = test system: sedge, umbrella; test: Test B flood; format: in vivo, Cyperus difformis; settings: 250 g ai/ha, visual rating on 0 to 100 scale (0 no effect, 100 complete control), 13 to 15 days
Method in brief: (§3)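 At two leaves, seedlings received the test compound via the paddy water, pots having been flooded 3 cm over the soil surface and kept so. Greenhouse-held for 13 to 15 days, then judged by eye against controls on a scale running 0 (no effect) to 100 (complete control).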

[21] = test system: barnyardgrass; test: Test B flood; format: in vivo, Echinochloa crus-galli; settings: 250 g ai/ha, visual rating on 0 to 100 scale (0 no effect, 100 complete control), 13 to 15 days
Method in brief: as §3

[22] = test system: ducksalad; test: Test B flood; format: in vivo, Heteranthera limosa; settings: 250 g ai/ha, visual rating on 0 to 100 scale (0 no effect, 100 complete control), 13 to 15 days
Method in brief: as §3

[23] = test system: rice; test: Test B flood; format: in vivo, Oryza sativa; settings: 250 g ai/ha, visual rating on 0 to 100 scale (0 no effect, 100 complete control), 13 to 15 days
Method in brief: as §3

[24] = 1000 g ai/ha, visual rating after approx. 10 days, 0 to 100 scale (0 no effect, 100 complete control)
[25] = Preemergence, 1000 g ai/ha, 0 to 100 scale, 0 no effect, 100 complete control
[26] = 31 g ai/ha, scale 0 to 100 (0 no effect, 100 complete control)
[27] = 62 g ai/ha, scale 0 to 100 (0 no effect, 100 complete control)
[28] = 125 g ai/ha, 0 to 100 scale, 0 no effect, 100 complete control
[29] = 500 g ai/ha, 0 to 100 scale (0 no effect, 100 complete control)
[30] = preemergence, 125 g ai/ha, visual injury approx. 10 days after treatment
[31] = preemergence, 500 g ai/ha, visual injury after approx. 10 days, 0 to 100 scale (0 no effect, 100 complete control)

CCCc1cc(C(=O)NCC(F)(F)F)nn1Cc1cccc(C(F)(F)F)c1 [Compound 31]
Corn plant response rating [1, 24]: 20
Morningglory plant response rating [2, 25]: 40
Crabgrass, Large plant response rating [3, 24]: 60
Foxtail, Giant plant response rating [4, 25]: 100
Morningglory plant response rating [5, 24]: 100
Velvetleaf plant response rating [6, 24]: 100
Corn plant response rating [7, 25]: 10
Barnyardgrass plant response rating [8, 24]: 60
Plant response rating, Rice [9, 26]: 0
Plant response rating, Rice [9, 27]: 0
Plant response rating, Rice ([9]; 125 g ai/ha, scale 0 to 100): 0
Plant response rating, Rice ([9]; 250 g ai/ha, scale 0 to 100): 15
Wheat plant response rating [10, 24]: 30
Velvetleaf plant response rating [11, 25]: 50
Barnyardgrass plant response rating [12, 25]: 50
Wheat plant response rating [13, 25]: 10
Plant response rating, Sedge, Umbrella [14, 26]: 30
Plant response rating, Sedge, Umbrella [14, 27]: 70
Plant response rating, Sedge, Umbrella ([14]; 125 g ai/ha, scale 0 to 100): 85
Plant response rating, Sedge, Umbrella ([14]; 250 g ai/ha, scale 0 to 100): 85
Foxtail, Giant plant response rating [15, 24]: 70
Crabgrass, Large plant response rating [16, 25]: 100
Pigweed plant response rating [17, 24]: 100
Plant response rating, Barnyardgrass [18, 26]: 0
Plant response rating, Barnyardgrass [18, 27]: 0
Plant response rating, Barnyardgrass ([18]; 125 g ai/ha, scale 0 to 100): 0
Plant response rating, Barnyardgrass ([18]; 250 g ai/ha, scale 0 to 100): 20
Pigweed plant response rating [19, 25]: 90

CCCNC(=O)c1cc(COC)n(Cc2cc(C(F)(F)C(F)(F)F)nn2C)n1 [Compound 228]
Corn plant response rating [1, 28]: 10
Corn plant response rating [1, 29]: 50
Morningglory plant response rating (0 to 100 scale) [2, 30]: 30
Crabgrass, Large plant response rating [3, 28]: 20
Crabgrass, Large plant response rating [3, 29]: 60
Plant response rating, Sedge, Umbrella [20]: 30
Foxtail, Giant plant response rating (0 to 100 scale) [4, 30]: 30
Foxtail, Giant plant response rating [4, 31]: 80
Morningglory plant response rating [5, 28]: 50
Morningglory plant response rating [5, 29]: 100
Velvetleaf plant response rating [6, 28]: 10
Velvetleaf plant response rating [6, 29]: 30
Corn plant response rating (0 to 100 scale) [7, 30]: 0
Corn plant response rating [7, 31]: 30
Barnyardgrass plant response rating [8, 28]: 0
Barnyardgrass plant response rating [8, 29]: 50
Plant response rating, Barnyardgrass [21]: 0
Wheat plant response rating [10, 28]: 0
Wheat plant response rating [10, 29]: 10
Velvetleaf plant response rating (0 to 100 scale) [11, 30]: 0
Barnyardgrass plant response rating (0 to 100 scale, 0 is no effect, 100 is complete control) [12, 30]: 10
Barnyardgrass plant response rating [12, 31]: 90
Wheat plant response rating (0 to 100 scale) [13, 30]: 0
Foxtail, Giant plant response rating [15, 28]: 10
Foxtail, Giant plant response rating [15, 29]: 60
Crabgrass, Large plant response rating (0 to 100 scale) [16, 30]: 90
Crabgrass, Large plant response rating [16, 31]: 100
Plant response rating, Ducksalad [22]: 30
Plant response rating, Rice [23]: 0
Pigweed plant response rating [17, 28]: 30
Pigweed plant response rating [17, 29]: 80
Pigweed plant response rating (0 to 100 scale) [19, 30]: 90
